These are literature values, as cited in patent US8697106B2, “Coating composition” (SurModics, Inc., priority 2006, dated 2014).

One data set deals with bacteria. The settings on record: effective systemic concentration.
The conditions of data set [1]: system-wide (systemic) concentration.

With `NC[C@H]1O[C@H](O[C@H]2[C@H](O)[C@@H](O[C@H]3O[C@H](CO)[C@@H](O)[C@H](N)[C@H]3O)[C@H](N)C[C@@H]2N)[C@H](N)C[C@@H]1O` [tobramycin], the “effective concentration to actively control bacteria” value with bacteria was at most 4 µg/mL. Besides, the system-wide toxic concentration entry in data set [1] is listed as “about 400 mcg/ml”.
